Earlier results as cited in patent publication US20240423961A1, “1H-1,2,3-TRIAZOLE-4-CARBOXYLIC ACIDS FOR TREATMENT OF HYPEROXALURIA AND KIDNEY STONES” (CANTERO THERAPEUTICS, INC., priority 2021, published 2024).
“And” between values parts separate entries of the source, which are not always exact repeats. Equal entries are not always repeated. Where two headings read alike, the source gives them in different places.

System: glycolate oxidase (GO)
Details: cited from earlier work

**Q.** For lumasiran, which “measured peak plasma glycolate relative to baseline levels” value (single subcutaneous dose 0.3 mg/kg) is on record?
**A.** The value was about 1.6 fold.

**Q.** And the “measured peak plasma glycolate relative to baseline levels” value (single subcutaneous dose 1.0 mg/kg)?
**A.** The value was about 2.5 fold.

**Q.** And the “measured peak plasma glycolate relative to baseline levels” value (single subcutaneous dose 3.0 mg/kg, 3 mg/kg)?
**A.** Its value is ~3.1 fold and ~3 fold.

**Q.** What about the “measured peak plasma glycolate relative to baseline levels” value (single subcutaneous dose 6.0 mg/kg) of the same substance?
**A.** Its value is about 7.3 fold.
